Like-named read-outs stand apart in the source and are kept apart here.
Test: Metabolite profile in rat liver
Assay type: in vivo, male Sprague-Dawley rats
Protocol: Homogenates were prepared on dry ice in 70% methanol-30% water containing 20 mM EDTA and 20 mM EGTA (about 1× (w/v) weight of the liver) and were stored frozen. Pooled liver samples were prepared for all groups by combining a fixed percentage of the total weight of each individual animal sample homogenate for each group. Each pooled liver homogenate (3.77-5.02 g) was placed in a 50-mL polypropylene centrifuge tube and 16.0 mL of methanol:water (70:30) was added. The sample was vortexed for one minute, and then centrifuged at 11200×g for 20 minutes. The supernatant was transferred to a tube and total volume was measured. The extraction procedure was repeated three additional times. Radioactivity of each supernatant was determined by LSC of duplicate aliquots (100 μL each) for extraction recovery. Subsamples of all four extracts from each sample were taken for proportionate pooling. For Group 1, the subsamples were pooled before concentration and, for Group 2, each subsample was concentrated separately and then pooled due to the larger volumes involved. Each extract was completely dried or reduced to approximately 100 μL. Reconstitution was accomplished with methanol (20 μL) and sufficient volume of the aqueous mobile phase of HPLC method 2 such that the total volume of each reconstituted sample was 500 μL. Duplicate aliquots of the reconstituted samples were analyzed by LSC. Each sample was analyzed by HPLC method 2.
Percent of the administered dose (% AD) for parent drug and each metabolite at each collection period=(% of the total radioactivity in the sample attributed to the metabolite)*(total radioactivity expressed as % of the administered dose, recovered during the corresponding collection period).
Microgram equivalents/g for parent drug or metabolite at each collection period (% radioactivity for each metabolite)*(total μg equivalents/g during the corresponding collection period).
Liver homogenates were pooled for each time point for both dose groups by proportional mixing according to the weight of the samples from individual animals. The pooled samples were extracted and prepared for HPLC analysis as described above. The abundance of metabolites was determined as a % of the administered dose and as μg equivalent/g. The data are presented in Table 54, Table 55, Table 56 and Table 57, respectively. Metabolites R^1, R^8 and R^9 were characterized based on retention time.

[1] = group 1 (IV dose) pooled liver, 2 h
[2] = group 1 (IV dose) pooled liver, 2 h (Table 56)
[3] = group 1 (IV dose) pooled liver, 6 h
[4] = group 1 (IV dose) pooled liver, 6 h (Table 56)
[5] = group 1 (IV dose) pooled liver, 24 h
[6] = male, Sprague-Dawley, rat, liver, iv, 50 mg/kg, group 1 (IV dose) pooled liver, 2 h, read-out: liver concentration as μg equivalents/g
[7] = male, Sprague-Dawley, rat, liver, iv, 50 mg/kg, group 1 (IV dose) pooled liver, 6 h, read-out: liver concentration as μg equivalents/g
[8] = rat liver, IV dose, 2 h (Group 1A)
[9] = rat liver, IV dose, 6 h (Group 1B)

Compound | Percent of Dose, Liver 24 h (IV, after [14C]Compound 1) | % AD [1] | % HPLC (percent of HPLC peak area in the sample extract) [1] | % HPLC (percent of HPLC peak area in the sample extract) [2] | % AD [3] | % HPLC (percent of HPLC peak area in the sample extract) [3] | % HPLC (percent of HPLC peak area in the sample extract) [4] | % AD [5] | % HPLC (percent of HPLC peak area in the sample extract) [5] | % HPLC (percent of HPLC peak area in the sample extract) (group 1 (IV dose) pooled liver, 24 h (Table 56)) | concentration at 2 h [6] | concentration at 6 h [7] | concentration at 24 h (male, Sprague-Dawley, rat, liver, iv, 50 mg/kg, group 1 (IV dose) pooled liver, 24 h, read-out: liver concentration as μg equivalents/g) | % of the total radioactivity in liver (rat liver, IV dose, 2, 6 and 24 h) | liver metabolite, % of the administered dose [8] | liver metabolite, % of the administered dose [9] | liver metabolite, % of the administered dose (rat liver, IV dose, 24 h) | % of the total radioactivity in liver (rat liver, PO dose, 2, 6 and 24 h) | concentration at 2 h (male, Sprague-Dawley, rat, liver, iv, 50 mg/kg, rat liver, IV dose, 2 h (Group 1A), read-out: liver metabolite concentration) | concentration at 6 h (male, Sprague-Dawley, rat, liver, iv, 50 mg/kg, rat liver, IV dose, 6 h (Group 1B), read-out: liver metabolite concentration)
C[C@@]1(O)[C@H](O)[C@@H](COP(=O)(O)O)O[C@H]1n1cnc2c(=O)[nH]c(N)nc21 [Compound 5, [(2R)-2-methyl-β-D-ribofuranosyl]guanine 5′-monophosphate] | 1.05% of Dose | 9.73 % AD | 62.6% | 62.6% | 6.39 % AD | 63.1% | 63.1% | 1.05 % AD | 59.9% | 59.9% | 129000 ng/g | 86200 ng/g | 13900 ng/g | 60-63% | 9.7 % AD | 6.4 % AD | 1.1 % AD | not detected | – | –
C[C@@]1(O)[C@H](O)[C@@H](COP(=O)(O)OP(=O)(O)OP(=O)(O)O)O[C@H]1n1cnc2c(=O)[nH]c(N)nc21 [Compound 7, [(2R)-2-methyl-β-D-ribofuranosyl]guanine 5′-triphosphate] | – | 0.05 % AD | 0.29% | 0.29% | 0.04 % AD | 0.35% | 0.35% | – | – | – | 600 ng/g | 480 ng/g | – | – | 0.05 % AD | 0.04 % AD | – | – | 600 ng/g | 480 ng/g
